From ChEMBL document CHEMBL4706479, “Novel Aryloxyethyl Derivatives of 1-(1-Benzoylpiperidin-4-yl)methanamine as the Extracellular Regulated Kinases 1/2 (ERK1/2) Phosphorylation-Preferring Serotonin 5-HT Receptor-Biased Agonists with Robust Antidepressant-like Activity” (J Med Chem, 2019)
Converted amounts (≈) assume the structure as drawn. The source made the active and inactive calls. The rule behind the calls is not given here.

Assays:
[1] = In vivo biased agonist activity at 5-HT1A receptor in rat prefrontal cortex assessed as serum concentration causing 50% increase in ERK1/2 phosphorylation level after oral administration measured 15 mins post drug administration
[2] = test system: MDCK-II; experiment: Inhibition of P-gp in human MDR1-MDCKII cells at 10 uM relative to control; type: cell-based; settings: Canis lupus familiaris
[3] = Protein binding in human plasma; type: ADME, cell-free; settings: read-out: PPB (converted)
[4] = biological target: Alpha-2A adrenergic receptor (Homo sapiens) (UniProt P08913); experiment: Inhibition of adrenergic alpha-2A receptor (unknown origin) at 1 uM relative to control
[5] = Cmax in Wistar rat brain at […], po measured after 60 mins by HPLC analysis; type: ADME, organism-based; design: route oral, dose 2.5 mg/kg, time 60 min
[6] = organism: Homo sapiens; experiment: Inhibition of L-type calcium channel dihydropyridine binding site (unknown origin) at 10 uM relative to control
[7] = test system: Rattus norvegicus; experiment: In vivo biased agonist activity at 5-HT1A receptor in rat prefrontal brain cortex assessed as increase in ERK1/2 phosphorylation levels at […], po administered as single dose measured after 30 mins by Alphalisa assay; type: functional, organism-based
[8] = biological target: Neuronal acetylcholine receptor; alpha4/beta2 (Homo sapiens) (UniProt P17787+P43681); experiment: Inhibition of nicotinic acetylcholine receptor alpha4beta2 (unknown origin) at 10 uM relative to control; type: protein-complex assay
[9] = biological target: T1, D(2) dopamine receptor (Homo sapiens, UniProt P14416); experiment: Inhibition of dopamine D2S receptor (unknown origin) at 1 uM relative to control
[10] = Aqueous solubility of compound in simulated intestinal fluid at 200 uM; type: physicochemical
[11] = biological target: T2, hERG (KCNH2) (Homo sapiens, UniProt Q12809); experiment: Inhibition of human ERG at 0.1 uM by patch clamp technique relative to control
[12] = organism: Homo sapiens; experiment: Inhibition of NMDA glutamate receptor (unknown origin) at 10 uM relative to control
[13] = test system: Rattus norvegicus; experiment: Antidepressant-like activity in Wistar rat assessed as minimum effective dose causing reduction in immobility time after oral administration with compound 60 mins prior to testing and measured for 5 mins test period by Porsolt-forced swim test; type: functional; settings: 1.083 h, time 65 min, read-out: MED
[14] = biological target: CYP3A4 (Homo sapiens, UniProt P08684); experiment: Inhibition of human recombinant CYP3A4 at 10 uM relative to control; type: ADME
[15] = biological target: Beta-1 adrenergic receptor (Homo sapiens) (UniProt P08588); experiment: Inhibition of adrenergic beta1 receptor (unknown origin) at 10 uM relative to control
[16] = biological target: Kappa-type opioid receptor (Homo sapiens) (UniProt P41145); experiment: Inhibition of kappa opioid receptor (unknown origin) at 10 uM relative to control
[17] = test system: Rattus norvegicus; experiment: In vivo biased agonist activity at 5-HT1A receptor in rat prefrontal brain cortex assessed as increase in ERK1/2 phosphorylation levels at […], po administered as single dose by Alphalisa assay; type: functional, organism-based; settings: time 5-60 min, TDE = time-dependent effect
[18] = biological target: 5-hydroxytryptamine receptor 1D (Homo sapiens) (UniProt P28221); experiment: Inhibition of 5-HT1D (unknown origin) at 1 uM relative to control
[19] = biological target: T2, hERG (KCNH2); experiment: Displacement of [3H]-dofetilide from human ERG (unknown origin) at 10 uM relative to control; settings: probe [3H]-dofetilide
[20] = biological target: 5-hydroxytryptamine receptor 7 (Homo sapiens) (UniProt P34969); experiment: Inhibition of 5-HT7 (unknown origin) at 1 uM relative to control
[21] = biological target: Sodium-dependent dopamine transporter (Homo sapiens) (UniProt Q01959); experiment: Inhibition of dopamine transporter (unknown origin) at 10 uM relative to control
[22] = biological target: Muscarinic acetylcholine receptor M2 (Homo sapiens) (UniProt P08172); experiment: Inhibition of muscarinic M2 receptor (unknown origin) at 10 uM relative to control
[23] = biological target: Beta-2 adrenergic receptor (Homo sapiens) (UniProt P07550); experiment: Inhibition of adrenergic beta2 receptor (unknown origin) at 10 uM relative to control
[24] = biological target: Tyrosine-protein kinase Lck (Homo sapiens) (UniProt P06239); experiment: Inhibition of LCK (unknown origin) at 10 uM relative to control
[25] = biological target: Sodium-dependent serotonin transporter (Homo sapiens) (UniProt P31645); experiment: Inhibition of serotonin transporter (unknown origin) at 10 uM relative to control
[26] = biological target: T2, hERG (KCNH2); experiment: Inhibition of human ERG at 10 uM by patch clamp technique relative to control
[27] = biological target: Alpha-1B adrenergic receptor (Homo sapiens) (UniProt P35368); experiment: Inhibition of adrenergic alpha-1B receptor (unknown origin) at 1 uM relative to control
[28] = biological target: Glucocorticoid receptor (Homo sapiens) (UniProt P04150); experiment: Inhibition of glucocorticoid receptor (unknown origin) at 10 uM relative to control
[29] = biological target: Muscarinic acetylcholine receptor M4 (Homo sapiens) (UniProt P08173); experiment: Inhibition of muscarinic M4 receptor (unknown origin) at 1 uM relative to control
[30] = organism: Homo sapiens; experiment: Inhibition of potassium channel (unknown origin) at 10 uM relative to control
[31] = biological target: Alpha-1A adrenergic receptor (Homo sapiens) (UniProt P35348); experiment: Inhibition of adrenergic alpha-1A receptor (unknown origin) at 1 uM relative to control
[32] = Aqueous solubility of compound in simulated gastric fluid at 200 uM; type: physicochemical
[33] = Apparent volume of distribution during terminal phase in Wistar rat at […], po measured after 60 mins by HPLC analysis; type: ADME, organism-based; settings: in vivo, dose 2.5 mg/kg, read-out: Vz/F
[34] = biological target: MAO-A (Homo sapiens, UniProt P21397); experiment: Inhibition of MAO-A (unknown origin) at 10 uM relative to control
[35] = organism: Homo sapiens; experiment: Inhibition of delta 2-type opioid receptor (unknown origin) at 10 uM relative to control
[36] = biological target: 5-hydroxytryptamine receptor 2B (Homo sapiens) (UniProt P41595); experiment: Inhibition of 5-HT2B (unknown origin) at 10 uM relative to control
[37] = biological target: Muscarinic acetylcholine receptor M1 (Homo sapiens) (UniProt P11229); experiment: Inhibition of muscarinic M1 receptor (unknown origin) at 10 uM relative to control
[38] = test system: Rattus norvegicus; experiment: In vivo biased agonist activity at 5-HT1A receptor in rat prefrontal brain cortex assessed as increase in ERK1/2 phosphorylation levels at 0.04 to […], po measured at 15 mins by Alphalisa assay; type: functional, organism-based; settings: dose lower 0.04 mg/kg, dose upper […]
[39] = biological target: 5-hydroxytryptamine receptor 2A (Homo sapiens) (UniProt P28223); experiment: Displacement of [3H]-ketanserin from human recombinant 5-HT2A receptor stably expressed in CHO-K1 cell membranes at 1 uM measured after 90 mins by microbeta2 scintillation counting analysis relative to control; settings: Cell membrane
[40] = biological target: Vasopressin V1a receptor (Homo sapiens) (UniProt P37288); experiment: Inhibition of vasopressin V1a receptor (unknown origin) at 10 uM relative to control
[41] = biological target: T1, D(2) dopamine receptor; experiment: Inhibition of dopamine D2S receptor (unknown origin) at 10 uM relative to control

T2 sequence (Q12809 whole entry): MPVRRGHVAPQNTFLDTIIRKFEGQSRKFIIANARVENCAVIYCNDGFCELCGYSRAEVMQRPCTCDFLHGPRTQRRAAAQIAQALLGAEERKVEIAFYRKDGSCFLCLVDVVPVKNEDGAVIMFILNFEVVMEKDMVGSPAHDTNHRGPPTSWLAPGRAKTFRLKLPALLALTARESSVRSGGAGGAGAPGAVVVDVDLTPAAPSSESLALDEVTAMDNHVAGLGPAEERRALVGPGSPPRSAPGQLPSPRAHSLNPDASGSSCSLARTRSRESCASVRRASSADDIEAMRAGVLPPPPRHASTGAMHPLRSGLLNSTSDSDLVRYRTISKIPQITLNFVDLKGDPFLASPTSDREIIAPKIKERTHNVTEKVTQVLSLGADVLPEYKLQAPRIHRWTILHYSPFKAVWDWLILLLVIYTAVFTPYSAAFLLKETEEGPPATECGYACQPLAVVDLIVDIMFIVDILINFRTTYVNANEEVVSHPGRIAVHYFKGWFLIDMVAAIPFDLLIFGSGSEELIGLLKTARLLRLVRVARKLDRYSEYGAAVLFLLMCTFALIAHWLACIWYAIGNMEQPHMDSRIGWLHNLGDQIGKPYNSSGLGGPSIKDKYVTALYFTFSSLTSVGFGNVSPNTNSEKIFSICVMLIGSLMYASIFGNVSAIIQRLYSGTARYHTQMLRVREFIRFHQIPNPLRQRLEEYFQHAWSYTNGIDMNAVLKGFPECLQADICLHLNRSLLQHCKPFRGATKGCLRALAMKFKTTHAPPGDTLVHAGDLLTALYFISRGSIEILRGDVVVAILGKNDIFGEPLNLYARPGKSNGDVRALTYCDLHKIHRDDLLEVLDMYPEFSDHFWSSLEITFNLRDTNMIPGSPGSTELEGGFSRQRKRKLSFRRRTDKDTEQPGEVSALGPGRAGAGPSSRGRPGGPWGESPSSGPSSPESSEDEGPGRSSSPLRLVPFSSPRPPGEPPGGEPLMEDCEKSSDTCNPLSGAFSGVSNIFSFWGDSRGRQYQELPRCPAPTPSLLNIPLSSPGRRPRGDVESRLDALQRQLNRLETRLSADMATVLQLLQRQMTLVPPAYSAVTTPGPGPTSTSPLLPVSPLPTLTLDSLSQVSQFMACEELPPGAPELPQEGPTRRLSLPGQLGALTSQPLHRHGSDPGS
T1 sequence (P14416 whole entry): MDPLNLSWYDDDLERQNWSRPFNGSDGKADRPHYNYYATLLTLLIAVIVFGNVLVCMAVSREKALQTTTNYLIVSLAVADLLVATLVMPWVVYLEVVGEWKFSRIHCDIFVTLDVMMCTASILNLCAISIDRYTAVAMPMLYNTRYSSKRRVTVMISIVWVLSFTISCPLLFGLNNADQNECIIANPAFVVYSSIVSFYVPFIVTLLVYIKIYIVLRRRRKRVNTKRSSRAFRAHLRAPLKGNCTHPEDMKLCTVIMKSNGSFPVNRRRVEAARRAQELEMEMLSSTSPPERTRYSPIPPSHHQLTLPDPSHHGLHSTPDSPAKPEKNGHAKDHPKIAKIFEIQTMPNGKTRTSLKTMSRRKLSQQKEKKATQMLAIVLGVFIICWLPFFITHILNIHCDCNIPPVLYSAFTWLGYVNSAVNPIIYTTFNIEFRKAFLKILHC
Chain of 5-hydroxytryptamine receptor 2A (Homo sapiens) (P28223 whole entry): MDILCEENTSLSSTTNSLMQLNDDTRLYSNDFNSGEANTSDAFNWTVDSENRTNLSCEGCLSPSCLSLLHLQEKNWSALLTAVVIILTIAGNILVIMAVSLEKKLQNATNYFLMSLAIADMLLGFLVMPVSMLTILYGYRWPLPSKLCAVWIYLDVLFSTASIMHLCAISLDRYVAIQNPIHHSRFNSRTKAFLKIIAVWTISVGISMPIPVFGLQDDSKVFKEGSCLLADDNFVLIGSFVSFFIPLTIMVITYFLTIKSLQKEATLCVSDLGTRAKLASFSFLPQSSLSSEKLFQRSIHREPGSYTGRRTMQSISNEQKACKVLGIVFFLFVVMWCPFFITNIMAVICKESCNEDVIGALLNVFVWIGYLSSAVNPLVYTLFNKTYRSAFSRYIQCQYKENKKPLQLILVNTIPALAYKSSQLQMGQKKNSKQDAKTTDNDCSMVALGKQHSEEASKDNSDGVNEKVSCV
Chain of Beta-1 adrenergic receptor (Homo sapiens) (P08588 whole entry, looked up): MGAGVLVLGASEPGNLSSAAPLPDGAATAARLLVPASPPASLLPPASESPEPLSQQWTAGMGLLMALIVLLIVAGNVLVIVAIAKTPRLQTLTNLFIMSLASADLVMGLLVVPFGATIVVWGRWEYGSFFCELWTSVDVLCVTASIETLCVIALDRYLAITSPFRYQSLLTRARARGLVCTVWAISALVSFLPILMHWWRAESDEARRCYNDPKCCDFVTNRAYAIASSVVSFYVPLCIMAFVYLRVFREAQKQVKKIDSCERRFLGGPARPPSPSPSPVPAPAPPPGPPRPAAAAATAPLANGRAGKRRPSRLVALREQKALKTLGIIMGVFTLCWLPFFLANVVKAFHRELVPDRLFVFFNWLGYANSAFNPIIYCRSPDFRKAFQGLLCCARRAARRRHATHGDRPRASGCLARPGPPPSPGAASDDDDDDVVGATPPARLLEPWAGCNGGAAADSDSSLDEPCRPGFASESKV
Chain of Sodium-dependent dopamine transporter (Homo sapiens) (Q01959 whole entry): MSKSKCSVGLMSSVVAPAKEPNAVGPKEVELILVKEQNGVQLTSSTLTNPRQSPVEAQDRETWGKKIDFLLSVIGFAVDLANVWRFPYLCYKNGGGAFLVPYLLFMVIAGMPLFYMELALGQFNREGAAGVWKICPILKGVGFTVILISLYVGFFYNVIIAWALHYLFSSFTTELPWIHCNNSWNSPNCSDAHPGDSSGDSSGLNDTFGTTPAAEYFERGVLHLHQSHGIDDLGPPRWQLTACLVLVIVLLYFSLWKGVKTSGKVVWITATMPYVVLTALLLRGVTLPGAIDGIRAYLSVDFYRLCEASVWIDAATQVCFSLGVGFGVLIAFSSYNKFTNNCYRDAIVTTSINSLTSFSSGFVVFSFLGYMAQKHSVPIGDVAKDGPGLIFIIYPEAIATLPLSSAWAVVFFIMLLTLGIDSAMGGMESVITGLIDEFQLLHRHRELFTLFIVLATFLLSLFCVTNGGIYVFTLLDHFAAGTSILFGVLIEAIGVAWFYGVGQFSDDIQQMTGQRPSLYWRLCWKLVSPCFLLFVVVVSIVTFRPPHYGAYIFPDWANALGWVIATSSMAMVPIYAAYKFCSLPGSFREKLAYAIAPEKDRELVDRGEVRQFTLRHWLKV
Chain of 5-hydroxytryptamine receptor 7 (Homo sapiens) (P34969 whole entry): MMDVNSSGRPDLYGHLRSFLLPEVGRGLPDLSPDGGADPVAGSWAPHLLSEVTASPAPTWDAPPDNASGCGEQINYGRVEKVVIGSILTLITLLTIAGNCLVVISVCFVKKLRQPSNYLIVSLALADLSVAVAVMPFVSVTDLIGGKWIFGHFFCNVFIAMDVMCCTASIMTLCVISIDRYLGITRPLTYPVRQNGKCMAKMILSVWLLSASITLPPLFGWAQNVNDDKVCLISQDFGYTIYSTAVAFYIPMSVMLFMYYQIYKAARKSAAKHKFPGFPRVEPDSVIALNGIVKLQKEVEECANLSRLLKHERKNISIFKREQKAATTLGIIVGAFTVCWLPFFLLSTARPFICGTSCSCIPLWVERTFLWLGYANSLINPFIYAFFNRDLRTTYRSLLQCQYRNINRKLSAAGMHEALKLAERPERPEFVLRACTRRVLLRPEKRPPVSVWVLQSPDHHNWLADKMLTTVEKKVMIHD
Chain of Vasopressin V1a receptor (Homo sapiens) (P37288 whole entry, looked up): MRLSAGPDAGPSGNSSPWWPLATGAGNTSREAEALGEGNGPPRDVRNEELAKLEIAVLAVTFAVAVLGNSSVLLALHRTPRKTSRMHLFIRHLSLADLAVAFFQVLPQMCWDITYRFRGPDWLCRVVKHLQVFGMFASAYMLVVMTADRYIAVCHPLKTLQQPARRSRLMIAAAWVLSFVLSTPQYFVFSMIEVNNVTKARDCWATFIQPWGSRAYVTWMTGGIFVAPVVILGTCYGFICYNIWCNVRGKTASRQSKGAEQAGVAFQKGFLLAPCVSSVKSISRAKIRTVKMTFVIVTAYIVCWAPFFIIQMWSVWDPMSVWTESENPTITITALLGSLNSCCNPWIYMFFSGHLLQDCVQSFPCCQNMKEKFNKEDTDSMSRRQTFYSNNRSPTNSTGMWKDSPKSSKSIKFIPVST
Chain of Kappa-type opioid receptor (Homo sapiens) (P41145 whole entry): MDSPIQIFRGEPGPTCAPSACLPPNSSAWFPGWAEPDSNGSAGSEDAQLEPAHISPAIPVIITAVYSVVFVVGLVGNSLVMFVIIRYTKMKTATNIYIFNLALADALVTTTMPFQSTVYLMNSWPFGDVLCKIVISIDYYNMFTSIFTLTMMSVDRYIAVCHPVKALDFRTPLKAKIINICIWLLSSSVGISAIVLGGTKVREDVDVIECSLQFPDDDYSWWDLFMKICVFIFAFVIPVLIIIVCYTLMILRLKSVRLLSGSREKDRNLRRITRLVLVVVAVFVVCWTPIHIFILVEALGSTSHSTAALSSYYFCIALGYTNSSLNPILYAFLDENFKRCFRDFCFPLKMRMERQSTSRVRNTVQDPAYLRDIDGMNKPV
Chain of MAO-A (P21397 whole entry): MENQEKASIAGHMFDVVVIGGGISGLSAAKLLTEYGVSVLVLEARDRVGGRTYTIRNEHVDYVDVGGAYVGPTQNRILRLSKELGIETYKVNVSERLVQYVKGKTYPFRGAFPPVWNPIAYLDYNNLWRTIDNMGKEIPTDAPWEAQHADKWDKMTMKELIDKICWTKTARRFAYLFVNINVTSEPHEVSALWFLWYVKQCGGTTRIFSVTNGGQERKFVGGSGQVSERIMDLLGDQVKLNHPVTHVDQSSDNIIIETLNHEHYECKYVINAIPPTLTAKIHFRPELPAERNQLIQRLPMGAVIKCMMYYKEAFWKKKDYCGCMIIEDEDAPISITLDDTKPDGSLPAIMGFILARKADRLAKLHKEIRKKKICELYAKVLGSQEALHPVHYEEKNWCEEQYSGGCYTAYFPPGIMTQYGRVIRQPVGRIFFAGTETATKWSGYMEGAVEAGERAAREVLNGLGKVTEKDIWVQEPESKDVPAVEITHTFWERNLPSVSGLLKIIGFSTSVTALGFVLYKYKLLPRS

O=C(c1ccc(F)c(Cl)c1)N1CCC(F)(CNCCOc2ccccn2)CC1
EC [1]: 17.2 ng/mL
inhibition [2]: 6.5%
fraction unbound [3]: 0.068
inhibition [4]: 29.9%
Cmax at 1 h [5]: 124 ng/mL
inhibition [6]: 18.2%
Activity [7]: Active
inhibition [8]: -5.4%
inhibition [9]: 9.5%
solubility at 200 µM [10]: 192 µM (≈ 78.8 µg/mL)
inhibition at 0.1 µM [11]: 0.1%
inhibition [12]: -1.8%
minimal effective dose [13]: 0.16 mg/kg
inhibition at 10 µM [14]: 23.2%
inhibition [15]: 2.2%
inhibition [16]: 34.6%
Activity [17]: Tde
inhibition [18]: 25.5%
inhibition at 10 µM [19]: 16.2%
inhibition [20]: 13.2%
inhibition [21]: 20.4%
inhibition [22]: 6.3%
inhibition [23]: 3.8%
inhibition [24]: 18.2%
inhibition [25]: 0.9%
inhibition at 10 µM [26]: 46.5%
inhibition [27]: 32.2%
inhibition [28]: -5.1%
inhibition [29]: 8.8%
inhibition [30]: 3.8%
inhibition [31]: 87.6%
solubility at 200 µM [32]: 200 µM (≈ 82 µg/mL)
Vd/F at 1 h [33]: 35.9 L/kg
inhibition at 10 µM [34]: -3.6%
inhibition [35]: 7.2%
inhibition [36]: 39.7%
inhibition [37]: 12.9%
Activity [38]: Active
Activity [39]: < 50%
inhibition [40]: 7%
inhibition [41]: 91.3%
